Measured values published in patent publication US10953012B2, “Heterocyclic compounds for the inhibition of pask” (BioEnergenix LLC, priority 2011, dated 2021).

Target: PASK (Homo sapiens (Human), UniProt Q96RG2)
Assay: PAS Kinase FRET Assay
Format: biochemical
Settings: TR-FRET assay; read-out: IC50 Kinase Domain
Text: The aim of the FRET assay is to determine the inhibition potential of test compounds on targeted kinase. This assay platform provides a homogenous screening method for measuring kinase activity by quantitating the amount of phospho-substrate in solution following a kinase reaction.
In the presence of kinase and ATP, the Ulight-peptide is phosphorylated and captured by an anti-phospho-substrate antibody, which brings the Eu chelate donor and Ulight acceptor dyes into close proximity. Upon excitation at 340 nm, the Eu chelate transfers its energy to the Ulight dye, resulting in a fluorescent light emission at 665 nm
Titration of kinase at 1 mM ATP was achieved via the following protocol. After making serial three-fold dilutions of PASK (Invitrogen) in reaction buffer across the plate; 5 μl of kinase dilution and 5 μl substrate/ATP mix were added to the wells of the white Optiplate-384 (PerkinElmer). The contents of the plate were and incubated at RT for 1 h. The reaction was stopped by adding 5 μl of stop solution to each test well followed by mixing and incubation at RT for 10 minutes. 5 μl of detection mix (detection antibody diluted in detection buffer) was added; the contents of the plate were mixed and then incubated in the dark for 1 hour at RT. The signal was recorded at TR-FRET mode (665 nm/615 nm). The results were graphed to calculate the EC50.
Titration of ATP at the EC50 concentration of kinase to determine ATP Km, app. was performed using the following method. After making serial dilutions of ATP (Invitrogen), 5 μl of ATP dilution and 5 μl substrate/kinase mix were added to the wells of the white Optiplate-384 (PerkinElmer). The contents of the plate were and incubated at RT for 1 h. The reaction was stopped by adding 5 μl of stop solution to each test well followed by mixing and incubation at RT for 10 minutes. 5 μl of detection mix (detection antibody diluted in detection buffer) was added; the contents of the plate were mixed and then incubated in the dark for 1 hour at RT. The signal was recorded at TR-FRET mode (665 nm/615 nm). The results were graphed to calculate the EC50 as the ATP Km, app.
Compound screening was done via the following method. 10 mM stock solution of test compound in DMSO was prepared by dissolving test compound in DMSO at RT for 1 hour, and then sonicating at 100% output for 8 minutes. If compound is not soluble under this condition, it was diluted to 3 mM. Kinase reaction buffer was prepared containing 10 mM MgCl2, 50 mM HEPES, 1 mM EGTA, 0.01% TWEEN-20, 2 mM DTT. Serial dilutions of the test compounds were prepared at 4×final assay concentrations using Freedom EVO200® dispensing system as follows: 12×10^−5 M, 4×10^−5 M, 1.33×10^−5 M, 4.44×10^−6 M, 1.48×10^−6 M, 4.92×10^−7 M, 1.65×10^−7 M, […], 1.82×10^−8M, 6.09×10^−9, 2.03×10^−9 M. Test compounds (2.5 μl at 4× the final assay concentration) was added to wells using Freedom EVO200® dispensing system. As a positive control, 2.5 μl of positive compound was added to assay wells, and 2.5 μl of DMSO to assay wells as vehicle control. Kinase solution was prepared in reaction buffer at 2×final assay concentration. Kinase solution (5 μl) was added to each well of the assay plate. The substrate and ATP solution was prepared in kinase reaction buffer at 4×final assay concentration. The kinase reaction was started by adding 2.5 μl of substrate+ATP mix solution to each well of the assay plate. The plate is mixed on a plate shaker; then covered and allowed to react for 2 hours in the dark at 25° C. without shaking. The reaction was stopped by adding 5 μl of stop solution to each test well followed by mixing and incubation at RT for 10 minutes in the dark. 5 μl of detection mix (detection antibody diluted in detection buffer) was added; the contents of the plate were mixed and then incubated in the dark for 1 hour at RT. The signal was recorded at TR-FRET mode (665 nm/615 nm).

Chain of PASK (Q96RG2 999-1251): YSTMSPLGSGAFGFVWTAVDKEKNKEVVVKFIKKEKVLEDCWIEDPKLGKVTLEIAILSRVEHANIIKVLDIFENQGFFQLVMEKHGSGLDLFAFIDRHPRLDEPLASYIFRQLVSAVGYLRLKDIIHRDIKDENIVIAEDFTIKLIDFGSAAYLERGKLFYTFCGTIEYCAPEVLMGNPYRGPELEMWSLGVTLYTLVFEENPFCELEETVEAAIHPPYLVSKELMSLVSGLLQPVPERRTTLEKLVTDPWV

SMILES	IC50 [µM]
COc1nn2c(=O)cc(-c3ccc4c(c3)OCO4)[nH]c2c1-c1ccccn1 [Example 157, 5-(Benzo[d][1,3]dioxol-5-yl)-2-methoxy-3-(pyridin-2-yl)pyrazolo[1,5-a]pyrimidin-7(4H)-one]	≤ 10
O=c1cc(-c2ccc(Cl)cc2F)[nH]c2c(-c3ccccn3)cnn12 [Example 162, 5-(4-Chloro-2-fluorophenyl)-3-(pyridin-2-yl)pyrazolo[1,5-a]pyrimidin-7(4H)-one]	≤ 10
Nc1nn2c(=O)cc(-c3ccc4occc4c3)[nH]c2c1-c1ccccn1 [Example 165, 2-Amino-5-(benzofuran-5-yl)-3-(pyridin-2-yl)pyrazolo[1,5-a]pyrimidin-7(4H)-one]	≤ 10
Cc1coc2ccc(-c3cc(=O)n4nc(N)c(-c5ccccn5)c4[nH]3)cc12 [Example 166, 2-Amino-5-(3-methylbenzofuran-5-yl)-3-(pyridin-2-yl)pyrazolo[1,5-a]pyrimidin-7(4H)-one]	≤ 10
Cc1coc2ccc(-c3cc(=O)n4ncc(-c5ccccn5)c4[nH]3)cc12 [Example 167, 5-(3-Methylbenzofuran-5-yl)-3-(pyridin-2-yl)pyrazolo[1,5-a]pyrimidin-7(4H)-one]	≤ 10
Cc1coc2ccc(-c3cc(=O)n4nc(O)c(-c5ccccn5)c4[nH]3)cc12 [Example 168, 2-Hydroxy-5-(3-methylbenzofuran-5-yl)-3-(pyridin-2-yl)pyrazolo[1,5-a]pyrimidin-7(4H)-one]	≤ 10
Cc1cc2cc(-c3cc(=O)n4ncc(-c5ccccn5)c4[nH]3)ccc2o1 [Example 169, 5-(2-Methylbenzofuran-5-yl)-3-(pyridin-2-yl)pyrazolo[1,5-a]pyrimidin-7(4H)-one]	≤ 10
Cc1cc2cc(-c3cc(=O)n4nc(N)c(-c5ccccn5)c4[nH]3)ccc2o1 [Example 170, 2-Amino-5-(2-methylbenzofuran-5-yl)-3-(pyridin-2-yl)pyrazolo[1,5-a]pyrimidin-7(4H)-one]	≤ 10

Results, then the compound that gave them:

IC50 [µM]	SMILES
≤ 10	CCCc1cnn2c(=O)cc(-c3ccc4c(c3)OCO4)[nH]c12 [Example 134, 5-(Benzo[d][1,3]dioxol-5-yl)-3-propylpyrazolo[1,5-a]pyrimidin-7(4H)-one]
≤ 10	COc1cc(Cl)ccc1-c1cc(=O)n2ncc(-c3ccccn3)c2[nH]1 [Example 136, 5-(4-Chloro-2-methoxyphenyl)-3-(pyridin-2-yl)pyrazolo[1,5-a]pyrimidin-7(4H)-one]
≤ 10	COc1nn2c(=O)cc(-c3ccc(Cl)cc3)[nH]c2c1C#N [Example 138, 5-(4-Chlorophenyl)-2-methoxy-7-oxo-4,7-dihydropyrazolo[1,5-a]pyrimidine-3-carbonitrile]
≤ 10	N#Cc1c(O)nn2c(=O)cc(-c3ccc(Cl)cc3)[nH]c12 [Example 139, 5-(4-Chlorophenyl)-2-hydroxy-7-oxo-4,7-dihydropyrazolo[1,5-a]pyrimidine-3-carbonitrile]
≤ 10	CS(=O)(=O)c1ccc(-c2cc(=O)n3ncc(-c4ccccn4)c3[nH]2)cc1 [Example 140, 5-(4-(Methylsulfonyl)phenyl)-3-(pyridin-2-yl)pyrazolo[1,5-a]pyrimidin-7(4H)-one]
≤ 10	O=C(c1cnn2c(=O)cc(-c3ccc4c(c3)OCCO4)[nH]c12)N1CCCC1 [Example 146, 5-(2,3-Dihydrobenzo[b][1,4]dioxin-6-yl)-3-(pyrrolidine-1-carbonyl)pyrazolo[1,5-a]pyrimidin-7(4H)-one]
≤ 10	Nc1nn2c(=O)cc(-c3cc4ccccc4o3)[nH]c2c1-c1ccccn1 [Example 151, 2-Amino-5-(benzofuran-2-yl)-3-(pyridin-2-yl)pyrazolo[1,5-a]pyrimidin-7(4H)-one]
≤ 10	Nc1nn2c(=O)cc(-c3ccc(Cl)c(Cl)c3)[nH]c2c1-c1ccccn1 [Example 153, 2-Amino-5-(3,4-dichlorophenyl)-3-(pyridin-2-yl)pyrazolo[1,5-a]pyrimidin-7(4H)-one]
≤ 10	O=c1cc(-c2ccccc2)[nH]c2c(-c3cccnc3)c(O)nn12 [Example 154, 2-Hydroxy-5-phenyl-3-(pyridin-3-yl)pyrazolo[1,5-a]pyrimidin-7(4H)-one]
